Results from EP4722212A1, “NOVEL COMPOUND FOR INHIBITING PROTEIN KINASES AND PHARMACEUTICAL COMPOSITION COMPRISING SAME” (Magicbullettherapeutics Co., Ltd., priority 2023, dated 2024).
Like-named read-outs stand apart in the source and are kept apart here.

Key:
Experiment in all cases: Kinase panel
Type in all cases: biochemical
RET = RET (Homo sapiens, UniProt P07949); settings: read-out: residual enzyme activity
Method in brief: (§1)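 Residual enzyme activity is given for kinases screened biochemically with compound at a fixed 1 µM. Kinases showing ≤40% residual activity (≥60% inhibition) were identified as inhibited.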

CK2A = CK2A (Homo sapiens, UniProt P68400); settings: read-out: residual enzyme activity
Method in brief: as §1

CKIEPSILON = CKIEPSILON (Homo sapiens, UniProt P49674); settings: read-out: residual enzyme activity
Method in brief: as §1

CK1G2 = CK1G2 (Homo sapiens, UniProt P78368); settings: read-out: residual enzyme activity
Method in brief: as §1

MKK7 = MKK7 (Homo sapiens, UniProt O14733); settings: MKK7, 1 µM; read-out: residual enzyme activity
Method in brief: as §1

SIK3 = SIK3 (Homo sapiens, UniProt Q9Y2K2); settings: SIK3, 1 µM; read-out: residual enzyme activity
Method in brief: as §1

TNIK = TNIK (Homo sapiens, UniProt Q9UKE5); settings: read-out: residual enzyme activity
TNIK, sequence (Q9UKE5 whole entry, species assumed): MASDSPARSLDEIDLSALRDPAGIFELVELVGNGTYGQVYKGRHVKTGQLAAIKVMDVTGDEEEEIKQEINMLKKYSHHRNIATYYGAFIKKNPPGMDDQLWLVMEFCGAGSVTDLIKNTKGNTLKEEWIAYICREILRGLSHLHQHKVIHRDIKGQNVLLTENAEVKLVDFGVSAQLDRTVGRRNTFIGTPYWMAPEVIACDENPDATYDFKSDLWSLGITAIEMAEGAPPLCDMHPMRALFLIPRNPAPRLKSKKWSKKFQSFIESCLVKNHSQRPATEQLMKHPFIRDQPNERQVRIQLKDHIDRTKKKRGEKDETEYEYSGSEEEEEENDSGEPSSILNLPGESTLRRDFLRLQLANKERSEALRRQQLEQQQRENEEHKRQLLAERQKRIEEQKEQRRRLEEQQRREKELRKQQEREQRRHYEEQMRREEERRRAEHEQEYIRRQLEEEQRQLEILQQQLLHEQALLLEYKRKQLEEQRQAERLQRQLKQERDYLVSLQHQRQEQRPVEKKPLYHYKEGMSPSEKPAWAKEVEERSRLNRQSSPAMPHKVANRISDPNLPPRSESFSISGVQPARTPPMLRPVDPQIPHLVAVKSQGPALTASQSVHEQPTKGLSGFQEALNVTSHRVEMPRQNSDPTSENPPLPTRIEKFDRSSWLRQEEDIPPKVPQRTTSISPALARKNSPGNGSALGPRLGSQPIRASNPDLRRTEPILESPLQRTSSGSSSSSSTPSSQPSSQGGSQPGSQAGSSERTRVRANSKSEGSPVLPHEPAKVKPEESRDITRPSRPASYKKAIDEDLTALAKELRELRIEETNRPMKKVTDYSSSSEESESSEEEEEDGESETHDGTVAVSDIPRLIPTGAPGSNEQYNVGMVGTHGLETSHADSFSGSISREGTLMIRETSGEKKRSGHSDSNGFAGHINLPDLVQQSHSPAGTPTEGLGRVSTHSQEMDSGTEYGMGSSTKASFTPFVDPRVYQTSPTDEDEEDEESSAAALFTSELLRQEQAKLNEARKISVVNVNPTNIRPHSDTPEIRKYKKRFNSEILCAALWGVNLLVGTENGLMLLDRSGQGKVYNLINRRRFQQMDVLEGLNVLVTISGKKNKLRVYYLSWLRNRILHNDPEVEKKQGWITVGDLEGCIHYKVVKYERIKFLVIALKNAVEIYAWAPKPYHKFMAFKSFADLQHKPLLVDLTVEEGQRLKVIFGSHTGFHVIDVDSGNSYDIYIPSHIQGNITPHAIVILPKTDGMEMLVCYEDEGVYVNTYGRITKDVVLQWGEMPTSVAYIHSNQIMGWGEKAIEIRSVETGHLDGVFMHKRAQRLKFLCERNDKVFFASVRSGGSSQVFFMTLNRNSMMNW
Method in brief: as §1

MEKK3 = MEKK3 (Homo sapiens, UniProt Q99759); settings: MEKK3, 1 µM; read-out: residual enzyme activity
Method in brief: as §1

MST4 = MST4 (Homo sapiens, UniProt Q9P289); settings: MST4, 1 µM; read-out: residual enzyme activity
MST4, sequence (Q9P289 whole entry, species assumed): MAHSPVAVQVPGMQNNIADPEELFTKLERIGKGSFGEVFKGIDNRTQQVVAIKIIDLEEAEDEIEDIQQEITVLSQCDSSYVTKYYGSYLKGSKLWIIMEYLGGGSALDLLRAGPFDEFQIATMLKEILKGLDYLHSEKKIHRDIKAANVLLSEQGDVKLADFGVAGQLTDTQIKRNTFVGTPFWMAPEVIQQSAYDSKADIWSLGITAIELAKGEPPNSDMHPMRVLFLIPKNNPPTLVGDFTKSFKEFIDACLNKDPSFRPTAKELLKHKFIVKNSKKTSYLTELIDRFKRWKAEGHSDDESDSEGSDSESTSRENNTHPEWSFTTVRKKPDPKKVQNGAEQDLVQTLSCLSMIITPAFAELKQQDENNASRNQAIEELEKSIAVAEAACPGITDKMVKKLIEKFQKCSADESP
Method in brief: as §1

LCK2/ICK = LCK2/ICK (Homo sapiens, UniProt Q9UPZ9); settings: read-out: residual enzyme activity
Method in brief: as §1

ZIPK/DAPK3 = ZIPK/DAPK3 (Homo sapiens, UniProt O43293); settings: ZIPK/DAPK3, 1 µM; read-out: residual enzyme activity
Method in brief: as §1

PKCETA = PKCETA (Homo sapiens, UniProt P24723); settings: read-out: residual enzyme activity
Method in brief: as §1

CDK18/CYCLIN Y (PCTK3) = CDK18/CYCLIN Y (PCTK3) (Homo sapiens, UniProt Q07002); settings: read-out: residual enzyme activity
Method in brief: as §1

DYRK1B = DYRK1B (Homo sapiens, UniProt Q9Y463); settings: read-out: residual enzyme activity
Method in brief: as §1

MNK1 = MNK1 (Homo sapiens, UniProt Q9BUB5); settings: MNK1, 1 µM; read-out: residual enzyme activity
Method in brief: as §1

MYLK4 = MYLK4 (Homo sapiens, UniProt Q86YV6); settings: MYLK4, 1 µM; read-out: residual enzyme activity
MYLK4, sequence (Q86YV6 whole entry, species assumed): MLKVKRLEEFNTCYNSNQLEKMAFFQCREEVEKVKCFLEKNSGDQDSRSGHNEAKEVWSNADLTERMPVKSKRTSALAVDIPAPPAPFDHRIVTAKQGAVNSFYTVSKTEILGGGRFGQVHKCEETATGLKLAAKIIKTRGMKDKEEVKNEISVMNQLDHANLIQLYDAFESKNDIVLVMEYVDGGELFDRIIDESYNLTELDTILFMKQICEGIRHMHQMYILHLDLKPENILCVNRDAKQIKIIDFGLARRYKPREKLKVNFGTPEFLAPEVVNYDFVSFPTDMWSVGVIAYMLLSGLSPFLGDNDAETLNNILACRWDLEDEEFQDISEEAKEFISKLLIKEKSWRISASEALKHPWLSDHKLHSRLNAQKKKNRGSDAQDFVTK
Method in brief: as §1

IKKE/IKBKE = IKKE/IKBKE (Homo sapiens, UniProt Q14164); settings: read-out: residual enzyme activity
Method in brief: as §1

CAMKK1 = CAMKK1 (Homo sapiens, UniProt Q8N5S9); settings: CAMKK1, 1 µM; read-out: residual enzyme activity
Method in brief: as §1

IKKB/IKBKB = IKKB/IKBKB (Homo sapiens, UniProt O14920); settings: read-out: residual enzyme activity
Method in brief: as §1

CAMK1A = CAMK1A (Homo sapiens, UniProt Q14012); settings: read-out: residual enzyme activity
Method in brief: as §1

PBK/TOPK = PBK/TOPK (Homo sapiens, UniProt Q96KB5); settings: read-out: residual enzyme activity
Method in brief: as §1

NIM1 = NIM1 (Homo sapiens, UniProt Q8IY84); settings: NIM1, 1 µM; read-out: residual enzyme activity
Method in brief: as §1

IRAK1 = IRAK1 (Homo sapiens, UniProt P51617); settings: IRAK1, 1 µM; read-out: residual enzyme activity
Method in brief: as §1

PKCNU/PRKD3 = PKCNU/PRKD3 (Homo sapiens, UniProt O94806); settings: PKCnu/PRKD3, 1 µM; read-out: residual enzyme activity
Method in brief: as §1

NEK3 = NEK3 (Homo sapiens, UniProt P51956); settings: NEK3, 1 µM; read-out: residual enzyme activity
Method in brief: as §1

NEK2 = NEK2 (Homo sapiens, UniProt P51955); settings: NEK2, 1 µM; read-out: residual enzyme activity
Method in brief: as §1

WNK2 = WNK2 (Homo sapiens, UniProt Q9Y3S1); settings: WNK2, 1 µM; read-out: residual enzyme activity
WNK2, sequence (Q9Y3S1 whole entry, species assumed): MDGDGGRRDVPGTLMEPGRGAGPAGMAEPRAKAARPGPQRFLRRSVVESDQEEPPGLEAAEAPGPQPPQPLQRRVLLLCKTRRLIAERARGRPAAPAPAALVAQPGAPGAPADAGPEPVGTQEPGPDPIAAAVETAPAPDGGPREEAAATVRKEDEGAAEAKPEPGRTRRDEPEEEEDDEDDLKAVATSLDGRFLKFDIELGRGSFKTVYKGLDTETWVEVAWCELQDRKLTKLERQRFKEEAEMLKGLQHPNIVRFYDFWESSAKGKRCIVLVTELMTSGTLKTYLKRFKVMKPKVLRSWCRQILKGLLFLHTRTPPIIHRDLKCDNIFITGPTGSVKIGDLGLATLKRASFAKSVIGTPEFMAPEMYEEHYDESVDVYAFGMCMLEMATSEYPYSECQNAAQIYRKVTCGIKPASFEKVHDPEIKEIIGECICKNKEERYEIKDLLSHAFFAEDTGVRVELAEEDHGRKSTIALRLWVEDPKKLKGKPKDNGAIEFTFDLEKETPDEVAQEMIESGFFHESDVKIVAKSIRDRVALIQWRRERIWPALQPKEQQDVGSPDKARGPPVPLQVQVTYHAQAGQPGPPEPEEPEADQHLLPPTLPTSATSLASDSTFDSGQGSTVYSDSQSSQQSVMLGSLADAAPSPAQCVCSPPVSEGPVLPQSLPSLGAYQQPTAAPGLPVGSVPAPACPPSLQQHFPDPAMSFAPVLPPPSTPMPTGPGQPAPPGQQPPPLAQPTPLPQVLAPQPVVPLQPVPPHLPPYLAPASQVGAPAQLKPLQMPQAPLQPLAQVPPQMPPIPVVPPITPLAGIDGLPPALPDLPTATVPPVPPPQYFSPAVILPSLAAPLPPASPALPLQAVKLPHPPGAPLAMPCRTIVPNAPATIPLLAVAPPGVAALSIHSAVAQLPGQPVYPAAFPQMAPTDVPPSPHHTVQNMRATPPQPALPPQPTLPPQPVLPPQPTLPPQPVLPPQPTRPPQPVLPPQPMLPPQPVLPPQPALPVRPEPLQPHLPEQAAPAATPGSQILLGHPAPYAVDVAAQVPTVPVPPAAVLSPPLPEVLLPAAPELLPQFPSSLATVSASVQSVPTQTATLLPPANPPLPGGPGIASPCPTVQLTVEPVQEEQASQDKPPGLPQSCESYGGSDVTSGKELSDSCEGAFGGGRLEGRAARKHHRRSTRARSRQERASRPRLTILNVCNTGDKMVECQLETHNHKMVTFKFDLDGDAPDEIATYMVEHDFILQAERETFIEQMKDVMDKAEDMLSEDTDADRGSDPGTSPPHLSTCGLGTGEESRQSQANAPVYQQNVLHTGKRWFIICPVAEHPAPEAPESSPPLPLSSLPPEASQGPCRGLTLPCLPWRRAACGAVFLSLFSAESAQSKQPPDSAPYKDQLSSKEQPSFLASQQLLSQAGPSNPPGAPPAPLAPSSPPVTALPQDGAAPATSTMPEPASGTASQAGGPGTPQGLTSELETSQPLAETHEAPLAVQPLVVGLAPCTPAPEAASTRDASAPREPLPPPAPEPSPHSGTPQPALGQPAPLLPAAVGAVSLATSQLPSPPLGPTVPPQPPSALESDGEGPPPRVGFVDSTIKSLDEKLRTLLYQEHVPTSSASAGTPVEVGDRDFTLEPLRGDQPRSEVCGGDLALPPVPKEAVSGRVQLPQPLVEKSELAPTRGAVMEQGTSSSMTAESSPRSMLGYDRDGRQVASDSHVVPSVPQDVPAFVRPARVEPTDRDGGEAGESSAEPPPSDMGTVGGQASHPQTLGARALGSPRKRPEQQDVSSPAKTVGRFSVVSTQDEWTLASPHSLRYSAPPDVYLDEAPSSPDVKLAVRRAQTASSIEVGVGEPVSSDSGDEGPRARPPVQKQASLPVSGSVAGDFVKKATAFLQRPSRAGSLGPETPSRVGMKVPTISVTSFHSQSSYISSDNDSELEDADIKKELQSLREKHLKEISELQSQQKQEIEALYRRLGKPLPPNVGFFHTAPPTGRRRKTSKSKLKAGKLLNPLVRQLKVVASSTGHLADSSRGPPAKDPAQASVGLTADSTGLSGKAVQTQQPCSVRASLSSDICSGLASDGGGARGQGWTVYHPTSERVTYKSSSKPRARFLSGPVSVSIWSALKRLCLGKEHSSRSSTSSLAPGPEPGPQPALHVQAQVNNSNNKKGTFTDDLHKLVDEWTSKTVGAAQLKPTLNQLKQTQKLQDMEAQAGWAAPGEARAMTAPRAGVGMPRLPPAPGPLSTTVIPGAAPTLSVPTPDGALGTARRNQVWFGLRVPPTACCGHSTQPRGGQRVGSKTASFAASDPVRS
Method in brief: as §1

PDK1/PDPK1 = PDK1/PDPK1 (Homo sapiens, UniProt O15530); settings: PDK1/PDPK1, 1 µM; read-out: residual enzyme activity
PDK1/PDPK1, sequence (O15530 whole entry): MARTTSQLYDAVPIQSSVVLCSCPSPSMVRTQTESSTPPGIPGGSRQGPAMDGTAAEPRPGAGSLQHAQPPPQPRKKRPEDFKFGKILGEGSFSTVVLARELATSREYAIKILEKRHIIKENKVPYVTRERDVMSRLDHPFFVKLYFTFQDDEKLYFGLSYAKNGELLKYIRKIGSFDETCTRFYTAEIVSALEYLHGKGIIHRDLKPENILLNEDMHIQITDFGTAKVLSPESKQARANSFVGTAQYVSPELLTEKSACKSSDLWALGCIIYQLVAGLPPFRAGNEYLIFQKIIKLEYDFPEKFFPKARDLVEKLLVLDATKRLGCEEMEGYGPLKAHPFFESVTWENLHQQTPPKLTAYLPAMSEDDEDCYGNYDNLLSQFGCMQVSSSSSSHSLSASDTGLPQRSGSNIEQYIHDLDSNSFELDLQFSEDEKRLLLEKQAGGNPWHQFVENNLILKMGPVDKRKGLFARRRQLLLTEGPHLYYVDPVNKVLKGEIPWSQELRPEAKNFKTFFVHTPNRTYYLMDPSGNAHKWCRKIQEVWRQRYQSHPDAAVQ
Method in brief: as §1

MEK2 = MEK2 (Homo sapiens, UniProt P36507); settings: MEK2, 1 µM; read-out: residual enzyme activity
Method in brief: as §1

SMILES | remaining activity at 1 µM (RET) [%] | remaining activity at 1 µM (MKK7) [%] | remaining activity at 1 µM (SIK3) [%] | remaining activity at 1 µM (TNIK) [%] | remaining activity at 1 µM (MEKK3) [%] | remaining activity at 1 µM (MST4) [%] | remaining activity at 1 µM (LCK2/ICK) [%] | remaining activity at 1 µM (ZIPK/DAPK3) [%] | remaining activity at 1 µM (PKCETA) [%] | remaining activity at 1 µM (CDK18/CYCLIN Y (PCTK3)) [%] | remaining activity at 1 µM (DYRK1B) [%] | remaining activity at 1 µM (MNK1) [%] | remaining activity at 1 µM (MYLK4) [%] | remaining activity at 1 µM (IKKE/IKBKE) [%] | remaining activity at 1 µM (CAMKK1) [%] | remaining activity at 1 µM (IKKB/IKBKB) [%] | remaining activity at 1 µM (PBK/TOPK) [%] | remaining activity at 1 µM (NIM1) [%] | remaining activity at 1 µM (IRAK1) [%] | remaining activity at 1 µM (PKCNU/PRKD3) [%] | other results
Cc1cn(-c2cc(C(=O)Nc3ccc(C)c(N4Cc5cnc(NC6CC6)nc5C5(CC5)C4=O)c3)cc(C(F)(F)F)c2)cn1 [Compound 8, N-(3-(2'-(cyclopropylamino)-7'-oxo-5'H-spiro[cyclopropane-1,8'-pyrido[4,3-d]pyrimidine]-6'(7'H)-yl)-4-methylphenyl)-3-(4-methyl-1H-imidazol-1-yl)-5-(trifluoromethyl)benzamide] | ≤ 40 | > 40 | ≤ 40 | ≤ 40 | ≤ 40 | > 40 | > 40 | > 40 | > 40 | > 40 | > 40 | > 40 | > 40 | > 40 | > 40 | > 40 | > 40 | > 40 | > 40 | > 40 | remaining activity at 1 µM (CK2A; CK2A): > 40%; remaining activity at 1 µM (CKIEPSILON; CKIEPSILON): > 40%; remaining activity at 1 µM (CK1G2; CK1G2, 1 µM): > 40%; remaining activity at 1 µM (CAMK1A; CAMK1A): > 40%; remaining activity at 1 µM (NEK3): > 40%; remaining activity at 1 µM (NEK2): > 40%; remaining activity at 1 µM (WNK2): > 40%; remaining activity at 1 µM (PDK1/PDPK1): > 40%; remaining activity at 1 µM (MEK2): > 40%
Cc1ccc(Nc2ncc3c(n2)C2(CC2)C(=O)N(c2cc(NC(=O)c4cccc(C(F)(F)F)c4)ccc2C)C3)cn1 [Compound 51, N-(4-methyl-3-(2'-((6-methylpyridin-3-yl)amino)-7'-oxo-5'H-spiro[cyclopropane-1,8'-pyrido[4,3-d]pyrimidine]-6'(7'H)-yl)phenyl)-3-(trifluoromethyl)benzamide] | ≤ 40 | > 40 | ≤ 40 | ≤ 40 | ≤ 40 | > 40 | > 40 | > 40 | > 40 | > 40 | > 40 | > 40 | > 40 | > 40 | > 40 | > 40 | > 40 | > 40 | > 40 | > 40 | remaining activity at 1 µM (CK2A; CK2a): > 40%; remaining activity at 1 µM (CKIEPSILON; CKlepsilon): > 40%; remaining activity at 1 µM (CK1G2; CKlg2, 1 µM): > 40%; remaining activity at 1 µM (CAMK1A; CAMKla): > 40%; remaining activity at 1 µM (NEK3): > 40%; remaining activity at 1 µM (NEK2): > 40%; remaining activity at 1 µM (WNK2): > 40%; remaining activity at 1 µM (PDK1/PDPK1): > 40%; remaining activity at 1 µM (MEK2): > 40%
